Measurements: patent publication US10780074B2, “Compounds and uses thereof” (Sunovion Pharmaceuticals Inc., priority 2017, dated 2020)
Counter-ions that a name gives are not always drawn.

System: behaviors of compound-treated mice
Assay: Neuropharmacological Assay (SmartCube)
Assay type: in vivo
Settings: for minimal effective dose: Mus musculus, ip, 0.25 h, dose having 50% or more total activity in SmartCube, i.p., read-out: MED (minimal effective dose); for AD: ADHD (probability that activity matches class) / AG: analgesic (probability that activity matches class) / AX: anxiolytic (probability that activity matches class) / CE: cognitive enhancer (probability that activity matches class) / DP: anti-depressant (probability that activity matches class) / MS: mood stabilizer (probability that activity matches class) / PS: anti-psychotic (probability that activity matches class) / SD: sedative hypnotic (probability that activity matches class) / UN: uncharacterized CNS activity (probability that activity matches class): i.p. 15 min before behavioral test, most efficacious dose(s) of 3 doses
Outline: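 Behavioral signatures were captured automatically by video, and each drug class received a probability for the best of three i.p. doses given 15 min pre-test (vehicle: Pharmasolve/PEG/propylene glycol). Potency is given as MED, the lowest mpk dose (typically 0.3–30) reaching 50% or more total activity.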

CNC[C@@H]1OCCCc2c(-c3ccncn3)cccc21 (single isomer, unassigned) [Compound 164, hydrochloride salt]
minimal effective dose: 10 to 30 mg/kg | AD: ADHD (probability that activity matches class): + (LOQ ≤ + <5%) | AG: analgesic (probability that activity matches class): + (LOQ ≤ + <5%) | AX: anxiolytic (probability that activity matches class): + (LOQ ≤ + <5%) | CE: cognitive enhancer (probability that activity matches class): + (LOQ ≤ + <5%) | DP: anti-depressant (probability that activity matches class): + (LOQ ≤ + <5%) | MS: mood stabilizer (probability that activity matches class): + (LOQ ≤ + <5%) | PS: anti-psychotic (probability that activity matches class): + (LOQ ≤ + <5%) | SD: sedative hypnotic (probability that activity matches class): + (LOQ ≤ + <5%) | UN: uncharacterized CNS activity (probability that activity matches class): + (LOQ ≤ + <5%)

NC[C@@H]1OCCc2c(-c3ncc[nH]3)cccc21 (single isomer, unassigned) [Compound 108, hydrochloride salt]
minimal effective dose: 10 to 30 mg/kg | AD: ADHD (probability that activity matches class): + (LOQ ≤ + <5%) | AG: analgesic (probability that activity matches class): ++ (5% ≤ ++ <25%) | AX: anxiolytic (probability that activity matches class): ++ (5% ≤ ++ <25%) | CE: cognitive enhancer (probability that activity matches class): + (LOQ ≤ + <5%) | DP: anti-depressant (probability that activity matches class): ++ (5% ≤ ++ <25%) | MS: mood stabilizer (probability that activity matches class): + (LOQ ≤ + <5%) | PS: anti-psychotic (probability that activity matches class): ++ (5% ≤ ++ <25%) | SD: sedative hypnotic (probability that activity matches class): ++ (5% ≤ ++ <25%) | UN: uncharacterized CNS activity (probability that activity matches class): +++ (25% ≤ +++ <50%)

NC[C@@H]1OCCc2c(-c3cncnc3)cccc21 (single isomer, unassigned) [Compound 27, hydrochloride salt]
minimal effective dose: > 30 mg/kg | AD: ADHD (probability that activity matches class): + (LOQ ≤ + <5%) | AG: analgesic (probability that activity matches class): + (LOQ ≤ + <5%) | AX: anxiolytic (probability that activity matches class): ++ (5% ≤ ++ <25%) | CE: cognitive enhancer (probability that activity matches class): + (LOQ ≤ + <5%) | DP: anti-depressant (probability that activity matches class): ++ (5% ≤ ++ <25%) | MS: mood stabilizer (probability that activity matches class): + (LOQ ≤ + <5%) | PS: anti-psychotic (probability that activity matches class): ++ (5% ≤ ++ <25%) | SD: sedative hypnotic (probability that activity matches class): + (LOQ ≤ + <5%) | UN: uncharacterized CNS activity (probability that activity matches class): + (LOQ ≤ + <5%)

CNC[C@@H]1OCCc2c(-c3cnoc3)cccc21 (single isomer, unassigned) [Compound 84, hydrochloride salt]
minimal effective dose: 3 to 10 mg/kg | AD: ADHD (probability that activity matches class): ++ (5% ≤ ++ <25%) | AG: analgesic (probability that activity matches class): + (LOQ ≤ + <5%) | AX: anxiolytic (probability that activity matches class): ++ (5% ≤ ++ <25%) | CE: cognitive enhancer (probability that activity matches class): ++ (5% ≤ ++ <25%) | DP: anti-depressant (probability that activity matches class): ++ (5% ≤ ++ <25%) | MS: mood stabilizer (probability that activity matches class): + (LOQ ≤ + <5%) | PS: anti-psychotic (probability that activity matches class): + (LOQ ≤ + <5%) | SD: sedative hypnotic (probability that activity matches class): + (LOQ ≤ + <5%) | UN: uncharacterized CNS activity (probability that activity matches class): ++ (5% ≤ ++ <25%)
